Source: US12686691B2, “Crystalline form of SHP2 inhibitor, and composition thereof, preparation method therefor, and use thereof” (ETERN BIOPHARMA (SHANGHAI) CO., LTD., priority 2020, dated 2026)
One block for each compound: values may come before it.

Columns and labels:
Type in all cases: physicochemical
[1] = Variable temperature XRPD (heating under nitrogen protection, XRPD after cooling)
Experimental: (§1) Instruments and Experimental Conditions Used in the Example • 1. Differential Scanning Calorimeter, DSC • Instrument model: Mettler Toledo DSC3+Stare e System • Purge gas: nitrogen (50 mL/min) • Ramping rate: 10.0° C./min • Temperature range: 20-250° C. • 2. X-Ray Powder Diffraction, XRPD • Instrument model: Rigaku UltimalV X-ray powder diffractometer • Ray: monochromatic Cu—Kα ray (λ=1.5418 Å) • Scanning mode: θ/2θ, scanning range: 3-45° • Voltage: 40 kV, current: 40 mA • 3. Thermogravimetric Analysis, TGA • Instrument model: Mettler Toledo TGA2STAR eSystem • Purge gas: nitrogen • Ramping rate: 10.0° C./min • Temperature range: 20-250° C. • 4. Dynamic Vapour Sorption, DVS • Instrument model: TAQ5000VSA • Temperature: 25° C. • Solvent: water • Humidity change: 0-95-0-95-0% RH, step by 10%, less than 0.01% of mass change within […] as the judging standard • 4. HPLC Method • Instrument model: Agilent 1100 with VWD detector • Columns: poroshell 120 EC C18, 3.0 mm/50 mm/2.7 μm • Mobile phase: A: 0.03% NH4OH (25%~28%) in water • B: 0.03% NH4OH (25%~28%) in acetonitrile
The crystalline form A of Compound 1 was placed under nitrogen protection and heated to different temperatures (30° C., 92° C., 118° C., 132° C. and 175° C., respectively), then subjected to XRPD test after it was cooled.
The crystalline form B of Compound 1 was placed under nitrogen protection and heated to different temperatures (130° C. and 180° C., respectively), then subjected to XRPD test after it was cooled to room temperature.
The crystalline form C of Compound 1 was placed under nitrogen protection and heated to different temperatures (130° C. and 160° C., respectively), then subjected to XRPD test after it was cooled to room temperature.
The crystalline form D of Compound 1 was placed under nitrogen protection and heated to different temperatures (100° C. and 160° C., respectively), then subjected to XRPD test after it was cooled to room temperature.
The crystalline form E of Compound 1 was placed under nitrogen protection and heated to different temperatures (96° C. and 180° C., respectively), then subjected to XRPD test after it was cooled to room temperature.

[2] = Stability investigation of the crystalline form A (placement under temperature/humidity, XRPD and HPLC); conditions: for Crystalline form change: XRPD; for HPLC purity initial: before placement
Experimental: as §1
• Mobile Phase Flow Rate: 1.0 mL/min • Run time: 10.0 min • Injection volume: 2 μL • Detecting wavelength: UV, 254 nm • Column temperature: 25° C. • Injector temperature: RT • Diluent: acetonitrile:water=1:1 (v:v)
The crystalline form A of Compound 1 was placed under 60° C./closed condition for 24 hours, under 25° C./60% RH and 40° C./75% RH in an open state for one week, respectively. The physical and chemical stability of the sample was detected by XRPD and HPLC.

DVS hygroscopicity test = test: DVS hygroscopicity test
Experimental: as §1
Hygroscopicity of the crystalline form A of Compound 1 was evaluated by DVS test.

[3] = heated to 130° C. under nitrogen
[4] = heated to 180° C. under nitrogen
[5] = heated to 160° C. under nitrogen
[6] = 40° C./75% RH, 1 week, open state

SMILES: Nc1nccc(Sc2cnc(N3CCC4(CC3)Cc3ncccc3[C@H]4N)n3ccnc23)c1Cl [crystalline form B, (S)-1′-(8-((2-amino-3-chloropyridin-4-yl)thio)imidazo[1,2-c]pyrimidin-5-yl)-5,7-dihydrospiro[cyclopentadieno[b]pyridine-6,4′-piperidine]-5-amine]
crystalline form after heating and cooling to room temperature [1, 3]: converted into an amorphous form
crystalline form after heating and cooling to room temperature [1, 4]: converted to the crystalline form A

SMILES: Nc1nccc(Sc2cnc(N3CCC4(CC3)Cc3ncccc3[C@H]4N)n3ccnc23)c1Cl [crystalline form E, (S)-1′-(8-((2-amino-3-chloropyridin-4-yl)thio)imidazo[1,2-c]pyrimidin-5-yl)-5,7-dihydrospiro[cyclopentadieno[b]pyridine-6,4′-piperidine]-5-amine]
crystalline form after heating and cooling to room temperature ([1]; heated to 96° C. under nitrogen): a small amount of diffraction signal of the crystalline form A is observed
crystalline form after heating and cooling to room temperature [1, 4]: completely converted to the crystalline form A

Continued, in another order:

crystalline form after heating and cooling to room temperature ([1]; heated to 100° C. under nitrogen): crystallinity was significantly reduced
SMILES: Nc1nccc(Sc2cnc(N3CCC4(CC3)Cc3ncccc3[C@H]4N)n3ccnc23)c1Cl [crystalline form D, (S)-1′-(8-((2-amino-3-chloropyridin-4-yl)thio)imidazo[1,2-c]pyrimidin-5-yl)-5,7-dihydrospiro[cyclopentadieno[b]pyridine-6,4′-piperidine]-5-amine]
crystalline form after heating and cooling to room temperature [1, 5]: diffraction signal of the crystalline form A is observed

crystalline form change during heating ([1]; heated to 30° C., 92° C., 118° C., 132° C. and 175° C. under nitrogen, XRPD after cooling): no crystalline form change
HPLC purity After placement ([2]; 25° C./60% RH, 1 week): 97.99 area %
HPLC purity Relative to initial ([2]; 25° C./60% RH, 1 week): 99.6%
Crystalline form change ([2]; 25° C./60% RH, 1 week): no crystalline form change
Crystalline form change ([2]; 25° C./60% RH, 1 week, listed as Crystalline form A): no
HPLC purity After placement [2, 6]: 97.89 area %
HPLC purity Relative to initial [2, 6]: 99.5%
Crystalline form change ([2]; 40° C./75% RH, 1 week, open state, listed as Crystalline form A): yes
HPLC purity After placement ([2]; 60° C./closed, 24 hours): 98.55 area %
HPLC purity Relative to initial ([2]; 60° C./closed, 24 hours): 99.9%
Crystalline form change ([2]; 60° C./closed, 24 hours): no crystalline form change
Crystalline form change ([2]; 60° C./closed, 24 hours, listed as Crystalline form A): no
chemical stability (HPLC) ([2]; all three stability test conditions): good chemical stability
purity maintained after placement (HPLC) ([2]; all three stability test conditions (25° C./60% RH 1 week, 40° C./75% RH 1 week, 60° C./closed 24 hours)): about 98%
HPLC purity initial ([2]; sample of the 25° C./60% RH and 40° C./75% RH 1 week tests): 98.41 area %
HPLC purity initial ([2]; sample of the 60° C./closed 24 hours test): 98.60 area %
stability (overall conclusion of the stability investigation) ([2]; conclusion from Examples 1.67 and 1.68): excellent stability
weight gain of moisture absorption (DVS hygroscopicity test; DVS, 80.0% RH, 25° C.): 1.88%
hygroscopicity (DVS hygroscopicity test; DVS, judged from weight gain at 80.0% RH): slight hygroscopicity
crystalline form before and after DVS test (XRPD) (DVS hygroscopicity test; XRPD before and after DVS): consistent
SMILES: Nc1nccc(Sc2cnc(N3CCC4(CC3)Cc3ncccc3[C@H]4N)n3ccnc23)c1Cl [crystalline form A, (S)-1′-(8-((2-amino-3-chloropyridin-4-yl)thio)imidazo[1,2-c]pyrimidin-5-yl)-5,7-dihydrospiro[cyclopentadieno[b]pyridine-6,4′-piperidine]-5-amine]
Crystalline form change [2, 6]: only part of crystalline form A was converted to hydrate crystalline form B

crystalline form after heating and cooling to room temperature [1, 3]: converted into an amorphous form
crystalline form after heating and cooling to room temperature [1, 5]: converted to the crystalline form A
SMILES: Nc1nccc(Sc2cnc(N3CCC4(CC3)Cc3ncccc3[C@H]4N)n3ccnc23)c1Cl [crystalline form C, (S)-1′-(8-((2-amino-3-chloropyridin-4-yl)thio)imidazo[1,2-c]pyrimidin-5-yl)-5,7-dihydrospiro[cyclopentadieno[b]pyridine-6,4′-piperidine]-5-amine]
